From patent US7176195B2, “Fused azepine derivatives and their use as antidiuretic agents” (Ferring BV, priority 2000, dated 2007)

tested on: Brattleboro rat; assay: Determination of antidiuretic activity in vivo (urine output, Brattleboro rat); settings: Brattleboro rats, 1 mg/kg p.o. in methylcellulose, vs control animals
Method: Determination of Antidiuretic Activity in Vivo
The Brattleboro rat is a recognised model for vasopressin deficiency (for a review see FD Grant, “Genetic models of vasopressin deficiency”, Exp. Physiol. 85, 203S–209S, 2000). […] Compounds of the invention were administered to Brattleboro rats (0.1–10 mg/kg p.o. in methylcellulose. Urine was callected hourly and volumes were compared with control animals. Animals had free access to food and water throughout the experiment. Representative results are given in Table S. Results for Desmopressin are given for comparison.

Row | Compound | % inhibition of urine output (at 1 hour)
1 | CCOC(=O)CNC(=O)NCc1ccc(C(=O)N2CCCCc3ccccc32)cc1C [Example 32, 1-(4-[N-(2-Ethoxy-2-oxoethylcarbamoyl)aminomethyl]-3-methylbenzoyl)-2,3,4,5-tetrahydro-1H-1-benzazepine] | 74%
2 | Cc1cc(C(=O)N2CCCCc3ccccc32)ccc1CNC(=O)NCC(=O)O [Example 33, 1-(4-[N-(Carboxymethylcarbamoyl)aminomethyl]-3-methylbenzoyl)-2,3,4,5-tetrahydro-1H-1-benzazepine] | 38%
3 | Cc1cc(C(=O)N2CCCCc3ccccc32)ccc1CNC(=O)NCC(=O)N(C)C [Example 35, 1-(4-[N-(2-Dimethylamino-2-oxoethylcarbamoyl)aminomethyl]-3-methylbenzoyl)-2,3,4,5-tetrahydro-1H-1-benzazepine] | 45–82%
4 | Cc1cc(C(=O)N2CCCCc3ccccc32)ccc1CNC(=O)N1CCC[C@H]1C(=O)N(C)C [Example 39, 1-(2-Methyl-4-(2,3,4,5-tetrahydro-1-benzazepin-1-ylcarbonyl)benzylcarbamoyl)-L-proline-N,N-dimethylamide] | 82%

target: V2 receptor (Homo sapiens, UniProt P30518); assay: Determination of V2 receptor agonist activity in vitro (cellular activation); format: cell-based; settings: concentration of compound necessary to cause a half-maximal cellular activation
Sequence (P30518 whole entry): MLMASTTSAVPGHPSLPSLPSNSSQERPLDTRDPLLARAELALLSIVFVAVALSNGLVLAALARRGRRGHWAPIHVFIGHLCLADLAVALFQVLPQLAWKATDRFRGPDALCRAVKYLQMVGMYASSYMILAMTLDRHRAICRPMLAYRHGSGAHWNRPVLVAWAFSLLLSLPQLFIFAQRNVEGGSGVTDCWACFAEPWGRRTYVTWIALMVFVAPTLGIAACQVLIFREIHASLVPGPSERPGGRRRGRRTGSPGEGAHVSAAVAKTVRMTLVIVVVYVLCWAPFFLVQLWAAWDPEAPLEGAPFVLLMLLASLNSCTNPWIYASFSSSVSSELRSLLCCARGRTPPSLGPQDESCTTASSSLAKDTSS
Method: Determination of V2r Ceptor Agonist Activity in Vitro
Agonist activity was determined for all compounds and is reported as an EC50 value, being that concentration of compound necessary to cause a half-maximal cellular activation.

Row | Compound | EC50 [nM]
5 | N#C/N=C(\NCc1ccc(C(=O)N2CCCCc3ccccc32)cc1)Nc1c(F)cccc1F [Example 2, 1-(4-[3-(2,6-Difluorophenyl)cyanoguanidinomethyl]benzoyl)-2,3,4,5-tetrahydro-1H-1-benzazepine] | 160
6 | COc1cccc(NC(=O)NCc2ccc(C(=O)N3CCCCc4ccccc43)cc2Cl)c1 [Example 4, 1-(3-Chloro-4-[3-(3-methoxyphenyl)ureidomethyl]benzoyl)-2,3,4,5-tetrahydro-1H-1-benzazepine] | 300
7 | O=C(NCc1ccc(C(=O)N2CCCCc3ccccc32)cc1Cl)Nc1ccccc1Cl [Example 5, 1-(3-Chloro-4-[3-(2-chloropheny)ureidomethyl]benzoyl)-2,3,4,5-tetrahydro-1H-1-benzazepine] | 150
8 | Cc1cc(C(=O)N2CCCCc3ccccc32)ccc1CNC(=O)NS(=O)(=O)c1ccccc1 [Example 8, 1-(3-Methyl-4-[3-(phenylsulfonyl)ureidomethyl]benzoyl)-2,3,4,5-tetrahydro-1H-1-benzazepine] | 220
9 | Cc1cc(C(=O)N2CCCCc3ccccc32)ccc1CNC(=O)Nc1ccc[nH]c1=O [Example 9, 1-(3-Methyl-4-[3-(2-oxo-1,2-dihydropyrid-3-yl)ureidomethyl]benzoyl)-2,3,4,5-tetrahydro-1H-1-benzazepine] | 50
10 | O=C(c1ccc(CNS(=O)(=O)Cc2ccccc2[N+](=O)[O-])c([N+](=O)[O-])c1)N1CCCCc2ccccc21 [Example 11, 1-(3-Nitro-4-[2-nitrobenyzlsulfonylaminomethyl]benzoyl)-2,3,4,5-tetrahydro-1H-1-benzazepine] | 21
11 | O=C(NCc1ccc(C(=O)N2CCCCc3ccccc32)c(Cl)n1)Nc1c(F)cccc1F [Example 21, 1-(2-Chloro-6-[3-(2,6-difluorophenyl)ureidomethyl]nicotinoyl)-2,3,4,5-tetrahydro-1H-1-benzazepine] | 180
12 | Cn1c(CNC(=O)Nc2c(F)cccc2F)ccc(C(=O)N2CCCCc3ccccc32)c1=O [Example 22, 1-(6-[3-(2,6-Difluorophenyl)ureidomethyl]-1-methyl-2-oxo-1,2-dihydropyridyl-3-carbonyl)-2,3,4,5-tetrahydro-1H-1-benzazepine] | 1000
13 | Cc1cc(C(=O)N2CCCCc3sccc32)ccc1CNC(=O)Nc1c(F)c(F)cc(F)c1F [Example 27, 4-(3-Methyl-4-[3-(2,3,5,6-tetrafluorophenyl)ureidomethyl]benzoyl)-5,6,7,8-tetrahydro-4H-thieno[3,2-b]azepine] | 23

More lines, now with the values ahead:

Row | EC50 [nM] | Compound
14 | 39 | O=C(NCc1ccc(C(=O)N2CCCCc3ccccc32)cc1)Nc1c(F)cccc1F [Example 1, 1-(4-[3-(2,6-Difluorophenyl)ureidomethyl]benzoyl)-2,3,4,5-tetrahydro-1H-1-benzazepine]
15 | 300 | O=C(NCc1ccc(C(=O)N2CCCCc3ccccc32)cn1)Nc1c(F)cccc1F [Example 3, 1-(6-[3-(2,6-Difluorophenyl)ureidomethyl]nicotinoyl)-2,3,4,5-tetrahydro-1H-1-benzazepine]
16 | 47 | O=C(c1ccc(CNC(=S)Nc2c(F)cccc2F)c(Cl)c1)N1CCCCc2ccccc21 [Example 6, 1-(3-Chloro-4-[3-(2,6-difluorophenyl)thioureidomethyl]benzoyl)-2,3,4,5-tetrahydro-1H-1-benzazepine]
17 | 24 | Cc1cc(CNC(=O)Nc2c(F)cccc2F)ccc1C(=O)N1CCCCc2ccccc21 [Example 7, 1-(4-[3-(2,6-Difluorophenyl)ureidomethyl]-2-methylbenzoyl)-2,3,4,5-tetrahydro-1H-1-benzazepine]
18 | 4 | Cc1cc(C(=O)N2CCCCc3ccccc32)ccc1CNC(=O)Nc1c(F)cccc1F [Example 10]
19 | 50 | Nc1cc(C(=O)N2CCCCc3ccccc32)ccc1CNC(=O)Nc1c(F)cccc1F [Example 12, 1-(3-Amino-4-[3-(2,6 difluorophenyl)ureidomethyl]benzoyl)-2,3,4,5-tetrahydro-1H-1-benzazepine]
20 | 38 | CN(C)c1cc(C(=O)N2CCCCc3ccccc32)ccc1CNC(=O)Nc1c(F)cccc1F [Example 13, 1-(4-[3-(2,6-Difluorophenyl)ureldomethyl]-3-dimethylaminobenzoyl)-2,3,4,5-tetrahydro-1H-1-benzazepine]
21 | 240 | O=C(NCc1ccc(C(=O)N2CCCCc3ccccc32)c(F)c1)Nc1c(F)cccc1F [Example 14, 1-(4-[3-(2,6-Difluorophenyl)ureidomethyl]-2-fluorobenzoyl)-2,3,4,5-tetrahydro-1H-1-benzazepine]
22 | 44 | Cc1cc(C(=O)N2CCCNc3ccccc32)ccc1CNC(=O)Nc1c(F)cccc1F [Example 15, 1-(4-[3-(2,6-Difluorophenyl)ureidomethyl]-3-methylbenzoyl)-2,3,4,5-tetrahydro-1H-1,5-bezazepine]
23 | 16 | Cc1cc(C(=O)N2CCCN(Cc3cccnc3)c3ccccc32)ccc1CNC(=O)Nc1c(F)cccc1F [Example 16, 1-(4-[3-(2,6-Difluorophenyl)ureidomethyl]-3-methylbenzoyl)-5-(3-pyridyl)methyl-2,3,4,5-tetrahydro-1H-1,5-benzodiazepine]
24 | 16 | Cc1cc(C(=O)N2CCCN(CCO)c3ccccc32)ccc1CNC(=O)Nc1c(F)cccc1F [Example 17, 1-(4-[3-(2,6Difuorophenyl)ureidomethyl]-3-methylbenzoyl)-5-(2-hydroxyethyl)-2,3,4,5-tetrahydro-1H-1,5-benzodiazepine]
25 | 17 | CN1CCCN(C(=O)c2ccc(CNC(=O)Nc3c(F)cccc3F)c(Cl)c2)c2ccccc21 [Example 18, 1-(3-Chloro-4-[3-(2,6-difluorophenyl)ureidomethyl]benzoyl)-5-methyl-2,3,4,5-tetrahydro-1H-1,5-benzodiazepine]
26 | 40 | Cc1cc(CNC(=O)Nc2c(F)cccc2F)ccc1C(=O)N1CCCN(C)c2ccccc21 [Example 19, 1-(4-[3-(2,6-Difluorophenyl)uredomethyl]-2-methylbenzoyl)-5-methyl-2,3,4,5-tetrahydro-1H-1,5-benzodiazepine]
27 | 17 | Cc1cc(C(=O)N2CCCCc3ccccc32)cc(C)c1CNC(=O)Nc1c(F)cccc1F [Example 20]
28 | 40 | CCN1CCCN(C(=O)c2ccc(CNC(=O)Nc3c(F)cccc3F)c(C)c2)c2ccccc21 [Example 23, 1-(4-[3-(2,6-Difluorophenyl)ureidomethyl]-3-methylbenzoyl)-5-ethyl-2,3,4,5-tetrahydro-1H-1,5-benzodiazepine]
29 | 92 | Cc1cc(C(=O)N2CCCCc3cccnc32)ccc1CNC(=O)Nc1c(F)cccc1F [Example 24]
30 | 280 | Cc1cc(C(=O)N2CCC[S+]([O-])c3ccccc32)ccc1CNC(=O)Nc1c(F)cccc1F (stereo not shown) [Example 25, 5-(4-[3-(2,6-Difluorophenyl)ureidomethyl]-3-methylbenzoyl)-1-oxo-1λ^4-2,3,4,5-tetrahydro-1,5-benzothiazepine]
31 | 10 | Cc1cc(C(=O)N2CCCCc3sccc32)ccc1CNC(=O)Nc1c(F)cccc1F [Example 26, 4-(4-[3-(2,6-Difluorophenyl)ureidomethyl]-3-methylbenzoyl)-5,6,7,8-tetrahydro-4H-thieno[3,2-b]azepine]
